Read-outs that look alike come from different tables or passages of the source.
Assays:
[1] = test system: panel of 42 breast cancer cell lines and 6 non-cancerous breast cell lines; assay: Cell growth inhibition assay, whole panel; type: cell-based; conditions: whole breast cell line panel, 72 h
Excerpt: To better delineate the response of breast cancer cells to conformationally-restricted polyamines, we studied the anti-proliferation activity of CGC-11047 (SL-11047 or Compound 58 in Table 1) among the panel of 42 breast cancer cell lines and 6 non-cancerous breast cell lines (e.g., human mammary epithelial cells, HMEC) of known subtype (basal or luminal) with a plethora of genomic background mimicking the human breast tumors. Extensive genomic background of these cell lines have been reported by Neve et al. (2006).
Cell culture: Breast cell lines were obtained from the ATCC and from collections developed in the laboratories of Drs. Steve Ethier and Adi Gazdar.
Cell growth inhibition assay and data analysis: Cells were plated at proper density in 96-well plates such that they would remain in log growth at the end of assay time. The cells were allowed to attach overnight before being exposed to CGC-11047 for 72 h. Drugs were dissolved in water as 100 mM stock. […] The cell growth was determined using Cell Titer Glo (CTG) assay (CellTiter-Glo Luminescent Cell Viability Assay, Promega, Madison, Wis.), with slight modification form manufacturer's protocol, at day 0 (time when drug was added) and at day 3 of drug exposure. […] Luminescence from the assay was recorded using BIO-TEK FLx800. […]

HCC70 cells = assay: BrdU incorporation and cell cycle distribution; type: cell-based, human; conditions: select sensitive cell lines except T47D (FIG. 4: HCC70); 0.3, 10 and 300 uM; 48 and 72 hrs
Method: FIGS. 4A and 4B. Effect of CGC-11047 on HCC70 cells with respect to cell cycle and apoptosis. In FIG. 4A, cells were treated for 72 hours with 0, 0.3, 10, or 100 μM CGC-11047. Shown are percentage of the cell population is G0-G1, S, or G2-M phase of cell growth. In FIG. 4B, cells were treated for 42, 48, or 72 hours with 0.3, 10, or 300 μM CGC-11047. Shown is the caspase activity (apoptosis) of treated cells within each condition compared to untreated controls.
BrdU cell staining and labeling: After incubation of cells with CGC-11047 at specified concentrations for 24, 48, and 72 hours, cells were pulsed with a final BrdU concentration of 10 uM for 30 minutes. Cells were then fixed with −20° C. 70% ethanol overnight. Fixed cells were incubated with 2N HCl for 5-7 minutes to denature DNA. Cell were then rinsed with 1× PBS to neutralize HCl.
Cells were incubated with primary donkey anti-BrdU antibody (diluted 1:100 in 0.5% PBS-tween20) for 1 hour then rinsed well with 0.5% PBS-tween20. Cells were incubated with Hoechst 33642 (diluted 1:2000) and secondary anti-donkey antibody (diluted 1:500) for 45 minutes and washed well with PBS-tween. […]
Select sensitive cell lines were treated with CGC-11047 at 0.3, 10 and 300 uM. BrdU incorporation was measured and cell cycle distribution was analyzed at 48 and 72 hrs. Apoptosis was measured using the Promega Caspase Glo 3/7 assay.

SMILES: CCNCCCNC/C=C\CNCCCNCC [CGC-11047]
- GI50 ([1]; Homo sapiens, read-out: median GI50): ~40 µM
- GI50 ([1]; units given in the value, read-out: GI50 range of the cell lines tested): 0.4 to 5000 µM
- cell cycle distribution / BrdU incorporation (HCC70 cells): growth inhibition is mainly caused by the delay in cell cycle, a G1 arrest

Source: patent US20110183336A1, “Method to Predict Responsiveness of Breast Cancer to Polyamine-Type Chemotherapy” (THE REGENTS OF THE UNIVERSITY OF CALIFORNIA, priority 2007, published 2011)
